Values of other authors as cited in patent publication US20200206183A1, “SYSTEMS, METHODS, AND FORMULATIONS FOR TREATING CANCER” (Research Cancer Institute of America, priority 2011, published 2020).

Assays:
[1] = test system: patients who had cancer deemed no longer treatable by conventional methods
tyrosine kinase = settings: measured in 11 subjects

Row | Compound | Dose concluded for further study ([1]; intravenous) [mg/m2] | Suppression as defined by the radiological criteria of WHO ([1]; up to 1700 mg/m2 intravenous for about 3 weeks, 50 patients) | Patients with sustained decreases in unique cancer markers ([1]; up to 1700 mg/m2 intravenous, 50 patients) | Subjects with a decrease in tyrosine kinase levels (tyrosine kinase) [subjects] | Toxicity (patients; oral doses up to 36 grams per day) | Patients with stable disease (patients; stable disease for more than 6 months while on the drug, one study) [%]
1 | O=c1c(O)c(-c2ccc(O)c(O)c2)oc2cc(O)cc(O)c12 [quercetin] | ≤ 1400 | None of the patients achieved suppression | two showed sustained decreases | 9 |  | 
2 | sodium phenylbutyrate [SPB] |  |  |  |  | minimal toxicity | 25
